Where “and” joins values, the source holds several entries; their conditions need not be identical. Equal entries are not always repeated.
Test: xn = mol fraction of the nth substance listed

OCCOCCOCCO + CS(C)=O
viscosity [mPa·s], 100 kPa
Details	293.15 K	298.15 K	303.15 K	308.15 K	313.15 K	318.15 K
x1 = 0.0266	2.4	2.27	2.01	1.87	1.72	1.53
x1 = 0.0547	2.72	2.64	2.36	2.14	1.97	1.74
x1 = 0.0842	3.09	3.02	2.69	2.42	2.22	1.95
x1 = 0.1155	3.58	3.49	3.08	2.77	2.52	2.21
x1 = 0.1485	4.15	4.03	3.55	3.17	2.87	2.5
x1 = 0.1822	4.76	4.64	4.05	3.61	3.24	–
x1 = 0.2192	5.55	5.38	4.67	4.13	3.7	–
x1 = 0.2575	6.44	6.21	5.36	4.7	4.19	–
x1 = 0.3003	7.57	7.25	6.2	5.42	4.79	–
x1 = 0.3422	8.76	8.35	7.09	6.15	5.42	–
x1 = 0.3888	10.2	9.68	8.15	7.03	6.15	–
x1 = 0.4385	11.9	11.2	9.36	8.03	6.98	–
x1 = 0.4915	13.9	13	10.8	9.17	7.91	–
x1 = 0.5521	16.4	15.2	12.5	10.6	9.07	–
x1 = 0.6114	19.2	17.6	14.3	12	10.2	–
x1 = 0.6754	22.3	20.3	16.4	13.7	11.5	–
x1 = 0.7463	26	23.6	18.9	15.7	13.1	–
x1 = 0.8233	30.6	27.5	21.8	17.9	14.9	–
x1 = 0.9083	35.9	32	25.2	20.5	16.9	–

CN[C@@H]1[C@H](O[C@H]2[C@H](O[C@H]3[C@H](O)[C@@H](O)[C@H](NC(=N)N)[C@@H](O)[C@@H]3NC(=N)N)O[C@@H](C)[C@]2(O)C=O)O[C@@H](CO)[C@H](O)[C@H]1O.CN[C@@H]1[C@H](O[C@H]2[C@H](O[C@H]3[C@H](O)[C@@H](O)[C@H](NC(=N)N)[C@@H](O)[C@@H]3NC(=N)N)O[C@@H](C)[C@]2(O)C=O)O[C@@H](CO)[C@H](O)[C@H]1O.O=S(=O)(O)O.O=S(=O)(O)O.O=S(=O)(O)O + O
Details	viscosity
293.15 K, 101.3 kPa, x1 = 0.00018	1.053 mPa·s
293.15 K, 101.3 kPa, x1 = 0.0003604	1.102 mPa·s
293.15 K, 101.3 kPa, x1 = 0.00054	1.156 mPa·s
293.15 K, 101.3 kPa, x1 = 0.0007203	1.207 mPa·s
293.15 K, 101.3 kPa, x1 = 0.0009005	1.266 mPa·s
293.15 K, 101.3 kPa, x1 = 0.00108	1.328 mPa·s
293.15 K, 101.3 kPa, x1 = 0.00126	1.393 mPa·s
293.15 K, 101.3 kPa, x1 = 0.001439	1.446 mPa·s
298.15 K, 101 kPa, x1 = 7.6e-05	0.9256 mPa·s
298.15 K, 101 kPa, x1 = 0.0001	0.9434 mPa·s
298.15 K, 101 kPa, x1 = 0.00015	0.9504 mPa·s
298.15 K, 101 kPa, x1 = 0.000216	0.9744 mPa·s
298.15 K, 101 kPa, x1 = 0.000286	0.9974 mPa·s
298.15 K, 101 kPa, x1 = 0.0003	0.9849 mPa·s
298.15 K, 101 kPa, x1 = 0.000358	1.02 mPa·s
298.15 K, 101.3 kPa, x1 = 0.00018	0.939 mPa·s
298.15 K, 101.3 kPa, x1 = 0.0003604	0.985 mPa·s
298.15 K, 101.3 kPa, x1 = 0.00054	1.037 mPa·s
298.15 K, 101.3 kPa, x1 = 0.0007203	1.089 mPa·s
298.15 K, 101.3 kPa, x1 = 0.0009005	1.147 mPa·s
298.15 K, 101.3 kPa, x1 = 0.00108	1.192 mPa·s
298.15 K, 101.3 kPa, x1 = 0.00126	1.249 mPa·s
298.15 K, 101.3 kPa, x1 = 0.001439	1.296 mPa·s
298.15 K, 101.33 kPa, x1 = 7e-07	0.8964 mPa·s
298.15 K, 101.33 kPa, x1 = 9e-07	0.8973 mPa·s
298.15 K, 101.33 kPa, x1 = 1e-06	0.8981 mPa·s and 0.899 mPa·s and 0.8998 mPa·s
298.15 K, 101.33 kPa, x1 = 1.8e-06	0.9034 mPa·s
298.15 K, 101.33 kPa, x1 = 2e-06	0.9025 mPa·s and 0.9043 mPa·s
298.15 K, 101.33 kPa, x1 = 2.2e-06	0.9051 mPa·s
303.15 K, 101 kPa, x1 = 7.6e-05	0.8296 mPa·s
303.15 K, 101 kPa, x1 = 0.0001	0.8493 mPa·s
303.15 K, 101 kPa, x1 = 0.00015	0.8528 mPa·s
303.15 K, 101 kPa, x1 = 0.000216	0.8752 mPa·s
303.15 K, 101 kPa, x1 = 0.000286	0.8971 mPa·s
303.15 K, 101 kPa, x1 = 0.0003	0.8904 mPa·s
303.15 K, 101 kPa, x1 = 0.000358	0.919 mPa·s
303.15 K, 101.3 kPa, x1 = 0.00018	0.844 mPa·s
303.15 K, 101.3 kPa, x1 = 0.0003604	0.887 mPa·s
303.15 K, 101.3 kPa, x1 = 0.00054	0.936 mPa·s
303.15 K, 101.3 kPa, x1 = 0.0007203	0.981 mPa·s
303.15 K, 101.3 kPa, x1 = 0.0009005	1.035 mPa·s
303.15 K, 101.3 kPa, x1 = 0.00108	1.079 mPa·s
303.15 K, 101.3 kPa, x1 = 0.00126	1.126 mPa·s
303.15 K, 101.3 kPa, x1 = 0.001439	1.171 mPa·s
303.15 K, 101.33 kPa, x1 = 5e-07	0.8016 mPa·s
303.15 K, 101.33 kPa, x1 = 7e-07	0.8024 mPa·s
303.15 K, 101.33 kPa, x1 = 9e-07	0.8032 mPa·s
303.15 K, 101.33 kPa, x1 = 1e-06	0.804 mPa·s and 0.8048 mPa·s and 0.8056 mPa·s
303.15 K, 101.33 kPa, x1 = 1.8e-06	0.8089 mPa·s
303.15 K, 101.33 kPa, x1 = 2e-06	0.8064 mPa·s and 0.8097 mPa·s
303.15 K, 101.33 kPa, x1 = 2.2e-06	0.8105 mPa·s
305.15 K, 101 kPa, x1 = 0.0002	0.826 mPa·s
305.15 K, 101 kPa, x1 = 0.0004	0.8609 mPa·s
308.15 K, 101 kPa, x1 = 7.6e-05	0.7487 mPa·s
308.15 K, 101 kPa, x1 = 0.0001	0.7667 mPa·s
308.15 K, 101 kPa, x1 = 0.00015	0.771 mPa·s
308.15 K, 101 kPa, x1 = 0.000216	0.7923 mPa·s
308.15 K, 101 kPa, x1 = 0.000286	0.8134 mPa·s
308.15 K, 101 kPa, x1 = 0.0003	0.8077 mPa·s
308.15 K, 101 kPa, x1 = 0.000358	0.834 mPa·s
308.15 K, 101.3 kPa, x1 = 0.00018	0.764 mPa·s
308.15 K, 101.3 kPa, x1 = 0.0003604	0.806 mPa·s
308.15 K, 101.3 kPa, x1 = 0.00054	0.848 mPa·s
308.15 K, 101.3 kPa, x1 = 0.0007203	0.893 mPa·s
308.15 K, 101.3 kPa, x1 = 0.0009005	0.943 mPa·s
308.15 K, 101.3 kPa, x1 = 0.00108	0.984 mPa·s
308.15 K, 101.3 kPa, x1 = 0.00126	1.026 mPa·s
308.15 K, 101.3 kPa, x1 = 0.001439	1.072 mPa·s
310.15 K, 101 kPa, x1 = 0.0002	0.7448 mPa·s
310.15 K, 101 kPa, x1 = 0.0004	0.7702 mPa·s
313.15 K, 101 kPa, x1 = 7.6e-05	0.6801 mPa·s
313.15 K, 101 kPa, x1 = 0.0001	0.6932 mPa·s
313.15 K, 101 kPa, x1 = 0.00015	0.7016 mPa·s
313.15 K, 101 kPa, x1 = 0.000216	0.722 mPa·s
313.15 K, 101 kPa, x1 = 0.000286	0.7425 mPa·s
313.15 K, 101 kPa, x1 = 0.0003	0.7345 mPa·s
313.15 K, 101 kPa, x1 = 0.000358	0.7623 mPa·s
313.15 K, 101.3 kPa, x1 = 0.00018	0.698 mPa·s
313.15 K, 101.3 kPa, x1 = 0.0003604	0.739 mPa·s
313.15 K, 101.3 kPa, x1 = 0.00054	0.784 mPa·s
313.15 K, 101.3 kPa, x1 = 0.0007203	0.822 mPa·s
313.15 K, 101.3 kPa, x1 = 0.0009005	0.866 mPa·s
313.15 K, 101.3 kPa, x1 = 0.00108	0.904 mPa·s
313.15 K, 101.3 kPa, x1 = 0.00126	0.946 mPa·s
313.15 K, 101.3 kPa, x1 = 0.001439	0.989 mPa·s
315.15 K, 101 kPa, x1 = 0.0002	0.6863 mPa·s
315.15 K, 101 kPa, x1 = 0.0004	0.7114 mPa·s
318.15 K, 101 kPa, x1 = 7.6e-05	0.6228 mPa·s
318.15 K, 101 kPa, x1 = 0.0001	0.6275 mPa·s
318.15 K, 101 kPa, x1 = 0.00015	0.6432 mPa·s
318.15 K, 101 kPa, x1 = 0.000216	0.6631 mPa·s
318.15 K, 101 kPa, x1 = 0.000286	0.683 mPa·s
318.15 K, 101 kPa, x1 = 0.0003	0.6686 mPa·s
318.15 K, 101 kPa, x1 = 0.000358	0.7027 mPa·s

Source: the CheMixHub viscosity set
